Test results from patent publication US9107411B2, “Indolecarboxamides and benzimidazolecarboxamides as insecticides and acaricides” (BAYER INTELLECTUAL PROPERTY GMBH, priority 2011, dated 2015).
Read-outs that look alike come from different tables or passages of the source.

Key:
Phaedon cochleariae = experiment: Phaedon test (PHAECO spray treatment); format: in vivo; settings: Chinese cabbage leaf discs, after 7 days
Experimental: Phaedon Test ([…] Spray Treatment) Solvent: 78.0 parts by weight of acetone • • 1.5 parts by weight of dimethylformamide Emulsifier: 0.5 part by weight of alkylaryl polyglycol ether To produce an appropriate active ingredient formulation, 1 part by weight of active ingredient is mixed with the stated amounts of solvent and emulsifier, and the concentrate is diluted with emulsifier-containing water to the desired concentration. Leaf discs of Chinese cabbage (Brassica pekinensis) are sprayed with an active ingredient formulation of the desired concentration and, after drying, populated with larvae of the mustard beetle (Phaedon cochleariae). After 7 days, the efficacy in % is determined. 100% means that all of the beetle larvae have been killed; 0% means that none of the beetle larvae have been killed.

Spodoptera frugiperda = Spodoptera frugiperda test (SPODFR spray treatment); format: in vivo; settings: maize leaf discs, after 7 days
Experimental: Spodoptera frugiperda Test (SPODFR Spray Treatment) Solvent: 78.0 parts by weight of acetone • • 1.5 parts by weight of dimethylformamide To produce an appropriate active ingredient formulation, 1 part by weight of active ingredient is mixed with the stated amounts of solvent and emulsifier, and the concentrate is diluted with emulsifier-containing water to the desired concentration. Leaf discs of maize (Zea mays) are sprayed with an active ingredient formulation of the desired concentration and, after drying, populated with caterpillars of the armyworm (Spodoptera frugiperda). After 7 days, the efficacy in % is determined 100% means that all of the caterpillars have been killed; 0% means that none of the caterpillars have been killed.

Tetranychus urticae = experiment: Tetranychus test, OP-resistant (TETRUR spray treatment); format: in vivo; settings: bean leaf discs, after 6 days
Experimental: Tetranychus Test, OP-Resistant (TETRUR Spray Treatment)
Solvent: 78.0 parts by weight of acetone • • 1.5 parts by weight of dimethylformamide
Emulgator: 0.5 part by weight of alkylaryl polyglycol ether
To produce an appropriate active ingredient formulation, 1 part by weight of active ingredient is mixed with the stated amounts of solvent and emulsifier, and the concentrate is diluted with emulsifier-containing water to the desired concentration.
Discs of bean leaves (Phaseolus vulgaris) infested by all stages of the red spider mite (Tetranychus urticae) are sprayed with an active ingredient formulation of the desired concentration.
After 6 days, the efficacy in % is determined. 100% means that all of the spider mites have been killed; 0% means that none of the spider mites have been killed.

logP (HPLC-MS) = format: physicochemical
[1] = HPLC, reversed-phase column (C18), acidic range pH 2.7, acetonitrile (0.1% formic acid)/water gradient, 43° C., calibration with unbranched alkan-2-ones
[2] = HPLC, reversed-phase column (C18), 43° C., acidic range pH 2.7, EEC directive 79/831 Annex V.A8, two values = both regioisomers (G = N)
[3] = Phaedon cochleariae, foliar, 168 h, application rate 100 g/ha, read-out: efficacy in %
[4] = HPLC, reversed-phase column (C18), acidic range pH 2.7, acetonitrile (0.1% formic acid)/water gradient, 43° C., calibration with unbranched alkan-2-ones, read-out: log p

Structure (SMILES)	log p (logP (HPLC-MS); [1])	efficacy in % (Phaedon cochleariae; application rate 100 g/ha) [%]	efficacy in % (Spodoptera frugiperda; application rate 100 g/ha) [%]	efficacy in % (Tetranychus urticae; application rate 100 g/ha) [%]	further results
C#CCn1c(C(=O)NC(c2cccc(Br)c2)C(F)(F)F)cc2cc(C(=O)NC3(C#N)CC3)c(Cl)cc21 (centres unmarked) [Compound 60]	3.48	100	100	100	
CCn1c(C(=O)NC(c2cc(Cl)cc(Cl)c2)C(F)(F)F)cc2cc(C(=O)NC3(C#N)CC3)c(Cl)cc21 (centres unmarked) [Compound 43]	4.14	100	100	100	
CCn1c(C(=O)NC(c2cccc(C(F)(F)F)c2)C(F)(F)F)cc2cc(C(=O)NC(C)C#N)c(Cl)cc21 (centres unmarked) [Compound 9]	3.72	100	100	90	
C#CCC(C#N)NC(=O)c1cc2cc(C(=O)NC(c3cccc(C(F)(F)F)c3)C(F)(F)F)n(CC)c2cc1Cl (centres unmarked) [Compound 268]	3.91	100	100	100	
C#CCn1c(C(=O)NC(c2cccc(Br)c2)C(F)(F)F)cc2cc(C(=O)NC3CC3)c(Cl)cc21 (centres unmarked) [Compound 59]	3.44		100	100	
CCn1c(C(=O)NC(c2cc(F)cc(Cl)c2)C(F)(F)F)cc2cc(C(=O)NC3CC3)c(C)cc21 (centres unmarked) [Compound 298]		100	100	100	log p (logP (HPLC-MS); [2]): 3.77
Cn1c(C(=O)NC(c2ccc(F)c(Cl)c2)C(F)(F)F)cc2cc(C(=O)NC3CC3)c(Cl)cc21 (centres unmarked) [Compound 53]	3.42	100	100	100	
CCn1c(C(=O)NC(c2cc(F)cc(Cl)c2)C(F)(F)F)cc2cc(C(=O)NC3(C#N)CC3)c(C)cc21 (centres unmarked) [Compound 293]		100	100	100	log p (logP (HPLC-MS); [2]): 3.85
CCN(CC)C(=O)c1cc2cc(C(=O)NC(c3ccc(F)c(Cl)c3)C(F)(F)F)n(CC)c2cc1C (centres unmarked) [Compound 320]		100	100	100	log p (logP (HPLC-MS); [2]): 4.35
C#CCn1c(C(=O)NC(c2ccc(F)c(Cl)c2)C(F)(F)F)cc2cc(C(=O)NC3(C#N)CC3)c(Cl)cc21 (centres unmarked) [Compound 64]	3.41	100	100	100	
CCn1c(C(=O)NC(c2cccc(C(F)(F)F)c2)C(F)(F)F)cc2cc(C(=O)NC3(C(N)=S)CC3)c(Cl)cc21 (centres unmarked) [Compound 273, N^5-(1-carbamothioylcyclopropyl)-6-chloro-1-ethyl-N^2-{2,2,2-trifluoro-1-[3-(trifluoromethyl)phenyl]ethyl}-1H-indole-2,5-dicarboxamide]			100	100	pest or weed control at 100 g/ha (Phaedon cochleariae; [3]): 100%; chromatographic logP (logP (HPLC-MS); [4]): 3.56; chromatographic logP (logP (HPLC-MS); HPLC-MS): 3.56
Cn1c(C(=O)NC(c2ccc(F)c(Br)c2)C(F)(F)F)cc2cc(C(=O)NC3CC3)c(Cl)cc21 (centres unmarked) [Compound 51]	3.61	100	100	100	
CCn1c(C(=O)NC(c2cccc(Cl)c2)C(F)(F)F)cc2cc(C(=O)NC3(C#N)CC3)c(C)cc21 (centres unmarked) [Compound 185]	3.58	100	100	100	
CCn1c(C(=O)NC(c2cccc(Cl)c2)C(F)(F)F)cc2cc(C(=O)NC3CC3)c(C)cc21 (centres unmarked) [Compound 184]	3.57	100	100	100	
Cn1c(C(=O)NC(c2cccc(Br)c2)C(F)(F)F)cc2cc(C(=O)NC3CC3)c(Cl)cc21 (centres unmarked) [Compound 47]	3.42	100		90	
CCn1c(C(=O)NC(c2ccc(F)c(C(F)(F)F)c2)C(F)(F)F)cc2cc(C(=O)NC3(C#N)CC3)c(C)cc21 (centres unmarked) [Compound 189]	3.77	100	100	100	
CCn1c(C(=O)NC(c2cccc(C(F)(F)F)c2)C(F)(F)F)nc2cc(C(=O)NC3CC3)c(Cl)cc21 (centres unmarked) [Compound 4, 6-chloro-N^5-cyclopropyl-1-ethyl-N^2-{2,2,2-trifluoro-1-[3-(trifluoromethyl)phenyl]ethyl}-1H-benzimidazole-2,5-dicarboxamide]					pest or weed control at 500 g/ha (Phaedon cochleariae; Phaedon cochleariae, foliar, 168 h, application rate 500 g/ha, read-out: efficacy in %): 100%; efficacy in % (Spodoptera frugiperda; application rate 500 g/ha): 100%; efficacy in % (Tetranychus urticae; application rate 500 g/ha): 100%; chromatographic logP (logP (HPLC-MS); [4]): 3.67; chromatographic logP (logP (HPLC-MS); HPLC-MS): 3.71
CCn1c(C(=O)NC(c2cc(Cl)cc(Cl)c2)C(F)(F)F)nc2cc(C(=O)NC3CC3)c(Cl)cc21 (centres unmarked) [Compound 317]					efficacy in % (Phaedon cochleariae; application rate 500 g/ha): 100%; efficacy in % (Spodoptera frugiperda; application rate 500 g/ha): 100%; efficacy in % (Tetranychus urticae; application rate 500 g/ha): 100%
Cn1c(C(=O)NC(c2cccc(Cl)c2)C(F)(F)F)cc2cc(C(=O)NC3(C#N)CC3)c(Cl)cc21 (centres unmarked) [Compound 46]	3.31	100		100	
CCn1c(C(=O)NC(c2cccc(C(F)(F)F)c2)C(F)(F)F)c(C#N)c2cc(C(=O)NC3(C#N)CC3)c(Cl)cc21 (centres unmarked) [Compound 279, 6-chloro-3-cyano-N5-(1-cyanocyclopropyl)-1-ethyl-N2-{2,2,2-trifluoro-1-[3-(trifluoromethyl)phenyl]ethyl}-1H-indole-2,5-dicarboxamide]			100	100	pest or weed control at 100 g/ha (Phaedon cochleariae; [3]): 100%; chromatographic logP (logP (HPLC-MS); HPLC, reversed-phase column (C18), 43° C., acidic range pH 2.7, EEC directive 79/831 Annex V.A8, two values = both regioisomers (G = N), read-out: log p): 3.45; chromatographic logP (logP (HPLC-MS); HPLC-MS): 3.45
CCn1c(C(=O)NC(c2ccc(F)c(C(F)(F)F)c2)C(F)(F)F)cc2cc(C(=O)NC(C)C)c(C)cc21 (centres unmarked) [Compound 305]		100	100	100	log p (logP (HPLC-MS); [2]): 4.16
CCOCn1c(C(=O)NC(c2cccc(C(F)(F)F)c2)C(F)(F)F)cc2cc(C(=O)NC3(C#N)CC3)c(Cl)cc21 (centres unmarked) [Compound 287]		100	100	100	log p (logP (HPLC-MS); [2]): 3.70
N#CCn1c(C(=O)NC(c2cccc(C(F)(F)F)c2)C(F)(F)F)cc2cc(C(=O)NC3(C#N)CC3)c(Cl)cc21 (centres unmarked) [Compound 294]		100			efficacy in % (Tetranychus urticae; application rate 500 g/ha): 100%; log p (logP (HPLC-MS); [2]): 3.30
CCn1c(C(=O)NC(c2cc(Cl)c(F)c(Cl)c2)C(F)(F)F)cc2cc(C(=O)NC3CC3)c(C)cc21 (centres unmarked) [Compound 296]		100	100	100	log p (logP (HPLC-MS); [2]): 4.16
C#CCn1c(C(=O)NC(c2cc(Cl)cc(Cl)c2)C(F)(F)F)cc2cc(C(=O)NC3CC3)c(Cl)cc21 (centres unmarked) [Compound 65]	3.90		100	100	
N#CC1(NC(=O)c2cc3cc(C(=O)NC(c4cccc(C(F)(F)F)c4)C(F)(F)F)n(CC4CC4)c3cc2Cl)CC1 (centres unmarked) [Compound 272]	4.03	100	100	100	

Now from value to compound, other results behind:

log p (logP (HPLC-MS); [1])	Structure (SMILES)	efficacy in % (Phaedon cochleariae; application rate 100 g/ha) [%]	efficacy in % (Spodoptera frugiperda; application rate 100 g/ha) [%]	efficacy in % (Tetranychus urticae; application rate 100 g/ha) [%]	further results
4.03	N#CC1(NC(=O)c2cc3cc(C(=O)NC(c4cccc(C(F)(F)F)c4)C(F)(F)F)n(C4CCC4)c3cc2Cl)CC1 (centres unmarked) [Compound 274]				efficacy in % (Phaedon cochleariae; application rate 500 g/ha): 100%; efficacy in % (Spodoptera frugiperda; application rate 500 g/ha): 100%; efficacy in % (Tetranychus urticae; application rate 500 g/ha): 100%
4.24	C#CCn1c(C(=O)NC(c2cc(Cl)c(Cl)c(Cl)c2)C(F)(F)F)cc2cc(C(=O)NC3(C#N)CC3)c(Cl)cc21 (centres unmarked) [Compound 277]	100	100	90	
3.32	C#CCn1c(C(=O)NC(c2cccc(OC(F)F)c2)C(F)(F)F)cc2cc(C(=O)NC3CC3)c(Cl)cc21 (centres unmarked) [Compound 278]	100	100	90	
